The values below come from paper PMC6017881, “Probing the Influence of Linker Length and Flexibility in the Design and Synthesis of New Trehalase Inhibitors” (Molecules : A Journal of Synthetic Chemistry and Natural …, 2018).

“Also recorded” adds a separate entry of the source. Where two headings read alike, the source gives them in different places.

Experiment [1] addresses T1, porcine kidney trehalase (Sus scrofa, UniProt I3LIR5).
T1 construct: porcine kidney trehalase (purchased from Sigma-Aldrich); purchased Sigma-Aldrich; host or cells: porcine kidney
T1 sequence (I3LIR5 24-583): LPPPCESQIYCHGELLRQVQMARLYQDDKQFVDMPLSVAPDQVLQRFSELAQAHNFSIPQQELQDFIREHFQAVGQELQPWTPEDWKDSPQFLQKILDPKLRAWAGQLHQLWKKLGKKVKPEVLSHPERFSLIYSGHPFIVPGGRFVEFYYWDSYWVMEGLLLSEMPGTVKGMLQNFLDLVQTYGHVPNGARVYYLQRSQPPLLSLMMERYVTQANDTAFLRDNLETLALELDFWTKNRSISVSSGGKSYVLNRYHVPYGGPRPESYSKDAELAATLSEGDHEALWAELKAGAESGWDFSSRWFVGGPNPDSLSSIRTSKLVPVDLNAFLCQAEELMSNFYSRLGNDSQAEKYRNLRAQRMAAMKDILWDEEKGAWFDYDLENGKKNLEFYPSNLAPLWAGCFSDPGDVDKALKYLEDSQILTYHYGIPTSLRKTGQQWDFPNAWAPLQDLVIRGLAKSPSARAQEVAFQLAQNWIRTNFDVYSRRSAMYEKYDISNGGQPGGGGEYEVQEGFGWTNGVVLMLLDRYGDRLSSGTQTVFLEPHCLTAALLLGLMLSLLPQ
As to the kind of experiment: Trehalase inhibition, coupled assay with glucose-6-phosphate dehydrogenase and hexokinase (dose-response). The class given is biochemical. To be noted: 2.5 mM trehalose (close to Km), 30 °C; read-out: IC50 towards porcine trehalase. How it is done: (§1) Compounds were tested for their inhibitory activity against insect trehalase of midge larvae of C. riparius, a good model for biochemical studies, and porcine kidney trehalase (purchased from Sigma-Aldrich, St. Louis, MO, USA) as the mammalian counterpart.
(§2) Trehalase activity was measured through a coupled assay with glucose-6-phosphate dehydrogenase and hexokinase according to Wegener at al. To examine the potential of each compound as a trehalase inhibitor, dose-response curves were established to determine the IC50 values. Experiments were performed at a fixed substrate concentration close to the Km value (0.5 mM for C. riparius and 2.5 mM for porcine trehalase), in the presence of increasing inhibitor concentrations.Initial rates as a function of inhibitor concentration were fitted to the following equation:(1) vi/v=1/1+([I]/IC50)^n where vi and v are the initial rate in the presence and in the absence of inhibitor, respectively, [I] is the inhibitor concentration, IC50 is the inhibitor concentration producing half-maximal inhibition, and n is the Hill coefficient.
(§3) All enzyme assays were performed in triplicates at 30 °C by using sample volumes varying from 5 to 20 μL in 1 mL test and using a Cary3 UV/Vis Spectrophotometer. Enzyme activities were analyzed by Cary Win UV application software for Windows XP.

Experiment [2] concerns the target T1, porcine kidney trehalase. Also noted: method as in PMID 25407551. The following applies: value taken from the literature; ref [7]; read-out: IC50 towards porcine trehalase; cited from earlier work.
Experiment [3] has as its target T2, C. riparius trehalase (Chironomus riparius, UniProt J7EJ73). Briefly: Trehalase inhibition, coupled assay with glucose-6-phosphate dehydrogenase and hexokinase (dose-response). The class given is biochemical. How it is done:
as §1, §2, §3

The target in experiment [4] is T2, C. riparius trehalase. Briefly: Inhibition kinetics at varying trehalose concentration (Lineweaver-Burk plot and replots). The class given is biochemical. To be noted: varying trehalose concentration at two inhibitor concentrations. How it is done: To evaluate the inhibitory pattern we performed kinetics measurements by varying the trehalose concentration, at two different concentrations of compounds 9α and 9β.
Kinetic experiments were performed using C. riparius trehalase, measuring enzymatic activity at different trehalose concentrations from 0.05 to 20 mM in the presence of fixed inhibitor concentrations (5–10 µM for the compound 9α and 0.5–1 µM for the compound 9β). Kinetic parameters were calculated using a multiparameter, iterative, non-linear regression program based on the Marquardt-Levenberg algorithm (Sigma Plot, Jandel, CA, USA). Data are given ± S.D. of three independent experiments.
as §3

T2 sequence (J7EJ73 entry or part of it): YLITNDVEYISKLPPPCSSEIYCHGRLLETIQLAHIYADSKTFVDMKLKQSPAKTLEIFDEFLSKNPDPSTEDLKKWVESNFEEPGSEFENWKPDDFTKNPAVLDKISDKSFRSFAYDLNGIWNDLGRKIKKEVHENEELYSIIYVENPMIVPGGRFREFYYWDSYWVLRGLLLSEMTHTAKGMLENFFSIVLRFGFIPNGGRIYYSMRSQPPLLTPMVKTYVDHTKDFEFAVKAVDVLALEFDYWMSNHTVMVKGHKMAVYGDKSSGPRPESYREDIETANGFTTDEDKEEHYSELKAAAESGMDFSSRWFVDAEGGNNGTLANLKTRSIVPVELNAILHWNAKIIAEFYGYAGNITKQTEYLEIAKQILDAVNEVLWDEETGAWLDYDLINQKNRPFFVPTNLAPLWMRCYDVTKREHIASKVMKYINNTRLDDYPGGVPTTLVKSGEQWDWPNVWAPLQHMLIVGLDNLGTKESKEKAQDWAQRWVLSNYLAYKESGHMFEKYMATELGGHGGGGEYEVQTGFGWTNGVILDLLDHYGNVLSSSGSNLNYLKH

Broadly, the IC50 is the point on the concentration scale where inhibition reaches its midpoint. Take `OC[C@@H]1[C@@H](O)[C@H](O)CN1CCOC1O[C@H](CO)[C@@H](O)[C@H](O)[C@H]1O` (stereo partly drawn) [9α,β]: the IC50 in experiment [1] came out at 7.67 ± 3.91 µM.
Regarding `OC[C@@H]1[C@@H](O)[C@H](O)[C@H]2C[C@@H](O[C@H]3O[C@H](CO)[C@@H](O)[C@H](O)[C@H]3O)CN12` [Compound 4, 7-deoxycasuarine glucoside], the IC50 in experiment [2] was 0.479 ± 0.045 µM.
On to `OC[C@@H]1[C@@H](O)[C@H](O)[C@H]2[C@H](O)[C@H](O)CN21` [Compound 6, (-)-uniflorine A], for which, in experiment [2], the 50% inhibitory concentration (IC50) is over 1000 µM.
Regarding `OC[C@@H]1[C@@H](O)[C@H](O)[C@H]2C[C@H](O)CN12` [Compound 7, 7-deoxy-uniflorine A], the IC50 in experiment [2] was over 1000 µM.
`OC[C@@H]1[C@@H](O)[C@H](O)[C@H]2C[C@H](O[C@H]3O[C@H](CO)[C@@H](O)[C@H](O)[C@H]3O)CN12` [Compound 8, (1R,2R,3R,6S,7aR)-1,2-dihydroxy-3-(hydroxymethyl)hexahydro-1H-pyrrolizin-6-yl-α-hexopyranoside]: the “Inhibitory activity towards C. riparius trehalase (in words)” value in experiment [3] was “active only in the μM range”. Further, the IC50 in experiment [1] is 191 ± 34.1 µM.
`OC[C@@H]1[C@@H](O)[C@H](O)CN1CCO[C@H]1O[C@H](CO)[C@@H](O)[C@H](O)[C@H]1O` [Compound 9α]: the IC50 in experiment [1] came to 27.6 ± 5.35 µM. In addition, in experiment [4], the “Inhibitory pattern (inhibition type)” value was “pure competitive”.
For `OC[C@@H]1[C@@H](O)[C@H](O)CN1CCO[C@@H]1O[C@H](CO)[C@@H](O)[C@H](O)[C@H]1O` [Compound 9β] the same measures were 5.84 ± 0.26 µM and “pure competitive”.
Take `OCC1OC(OCCCN2CC(O)C(O)C2CO)C(O)C(O)C1O` (stereo not drawn) [Compound 10]: the “Inhibitory activity towards C. riparius trehalase (in words)” value in experiment [3] is “loose completely their inhibitory properties; also recorded: completely inactive”.
Same read-out and setting: the result for `OCC1OC(OCCCCN2CC(O)C(O)C2CO)C(O)C(O)C1O` (stereo not drawn) [Compound 11] reads “loose completely their inhibitory properties; also recorded: completely inactive”.
